Experimental data published in patent US20250120989A1, “BRIDGED TRICYCLIC CARBAMOYLPYRIDONE COMPOUNDS AND USES THEREOF” (priority 2023, published 2025).
Converted amounts (≈) assume the structure as drawn.

Legend:
[1] = system: HIV-1 (IIIB); experiment: microbe, parasite or virus in culture; format: cell-based; settings: Human immunodeficiency virus 1, MT4, 120 h; HIV-1 (IIIB) replication in MT-4 cells, 5 days, Cell Titer Glo; read-out: MT4 EC50
[2] = in vitro; settings: human, uninfected MT-4 cells
[3] = physchem; settings: FaSSIF, 23 °C, thermodynamic from solid

SMILES | EC50 [1] [µM] | CC50 at 5 days [2] [µM] | solubility thermodynamic at 24 h [3] [µg/mL]
CC1=NO[C@@]2(CC[C@H](C)N3C[C@H]2n2cc(C(=O)NCc4ccc(F)cc4F)c(=O)c(OCOC(=O)OC(C)(C)COP(=O)(O)O)c2C3=O)C1 [Compound 62, (((3′S,5S,7′R)-10′-((2,4-difluorobenzyl)carbamoyl)-3,3′-dimethyl-1′,11′-dioxo-1′,4′,5′,11′-tetrahydro-3′H,4H,7′H-spiro[isoxazole-5,6′-[2,7]methanopyrido[1,2-a][1,4]diazonin]-12′-yl)oxy)methyl (2-methyl-1-(phosphonooxy)propan-2-yl) carbonate] | 0.00258 | 28.1 | 5040 (≈ 7.08 mM)
CC1=NO[C@@]2(CC[C@H](C)N3C[C@H]2n2cc(C(=O)NCc4ccc(F)cc4F)c(=O)c(OCOC(=O)O[C@@H](C)[C@@H](C)OP(=O)(O)O)c2C3=O)C1 [Compound 57, (((3′S,5S,7′R)-10′-((2,4-difluorobenzyl)carbamoyl)-3,3′-dimethyl-1′,11′-dioxo-1′,4′,5′,11′-tetrahydro-3′H,4H,7′H-spiro[isoxazole-5,6′-[2,7]methanopyrido[1,2-a][1,4]diazonin]-12′-yl)oxy)methyl ((2S,3R)-3-(phosphonooxy)butan-2-yl) carbonate] | 0.00232 | 19.9 | 4630 (≈ 6.5 mM)
CC1=NO[C@@]2(CC[C@H](C)N3C[C@H]2n2cc(C(=O)NCc4ccc(F)cc4F)c(=O)c(OC(=O)OCC(C)(C)COP(=O)(O)O)c2C3=O)C1 [Compound 13, (3′S,5S,7′R)-10′-((2,4-difluorobenzyl)carbamoyl)-3,3′-dimethyl-1′,11′-dioxo-1′,4′,5′,11′-tetrahydro-3′H,4H,7′H-spiro[isoxazole-5,6′-[2,7]methanopyrido[1,2-a][1,4]diazonin]-12′-yl (2,2-dimethyl-3-(phosphonooxy)propyl) carbonate] | 0.00198 | 14 | 4380 (≈ 6.29 mM)
CC1=NO[C@@]2(CC[C@H](C)N3C[C@H]2n2cc(C(=O)NCc4ccc(F)cc4F)c(=O)c(OCOC(=O)O[C@H](C)C[C@@H](C)OP(=O)(O)O)c2C3=O)C1 [Compound 31, (((3′S,5S,7′R)-10′-((2,4-difluorobenzyl)carbamoyl)-3,3′-dimethyl-1′,11′-dioxo-1′,4′,5′,11′-tetrahydro-3′H,4H,7′H-spiro[isoxazole-5,6′-[2,7]methanopyrido[1,2-a][1,4]diazonin]-12′-yl)oxy)methyl ((2R,4R)-4-(phosphonooxy)pentan-2-yl) carbonate] | 0.0035 | 12.9 | 4620 (≈ 6.37 mM)
COC1=NO[C@@]2(CC[C@H](C)N3C[C@H]2n2cc(C(=O)NCc4ccc(F)cc4F)c(=O)c(OC(=O)OC[C@H](C)OP(=O)(O)O)c2C3=O)C1 [Compound 38, (3′S,5S,7′R)-10′-((2,4-difluorobenzyl)carbamoyl)-3-methoxy-3′-methyl-1′,11′-dioxo-1′,4′,5′,11′-tetrahydro-3′H,4H,7′H-spiro[isoxazole-5,6′-[2,7]methanopyrido[1,2-a][1,4]diazonin]-12′-yl ((S)-2-(phosphonooxy)propyl) carbonate] | 0.00145 | 17.6 | 2460 (≈ 3.59 mM)
CC[C@@H](COP(=O)(O)O)OC(=O)OCOc1c2n(cc(C(=O)NCc3ccc(F)cc3F)c1=O)[C@@H]1CN(C2=O)[C@@H](C)CC[C@]12CC(C)=NO2 [Compound 26, (((3′S,5S,7′R)-10′-((2,4-difluorobenzyl)carbamoyl)-3,3′-dimethyl-1′,11′-dioxo-1′,4′,5′,11′-tetrahydro-3′H,4H,7′H-spiro[isoxazole-5,6′-[2,7]methanopyrido[1,2-a][1,4]diazonin]-12′-yl)oxy)methyl ((S)-1-(phosphonooxy)butan-2-yl) carbonate] | 0.00271 | 13.5 | 4760 (≈ 6.69 mM)
COC1=NO[C@@]2(CC[C@H](C)N3C[C@H]2n2cc(C(=O)NCc4ccc(F)cc4F)c(=O)c(OCOC(=O)O[C@@H](C)[C@H](C)OP(=O)(O)O)c2C3=O)C1 [Compound 29, (((3′S,5S,7′R)-10′-((2,4-difluorobenzyl)carbamoyl)-3-methoxy-3′-methyl-1′,11′-dioxo-1′,4′,5′,11′-tetrahydro-3′H,4H,7′H-spiro[isoxazole-5,6′-[2,7]methanopyrido[1,2-a][1,4]diazonin]-12′-yl)oxy)methyl ((2S,3S)-3-(phosphonooxy)butan-2-yl) carbonate] | 0.00487 | 29 | 4880 (≈ 6.7 mM)
CC1=NO[C@@]2(CC[C@H](C)N3C[C@H]2n2cc(C(=O)NCc4ccc(F)cc4F)c(=O)c(OCOC(=O)OC[C@H](C)COP(=O)(O)O)c2C3=O)C1 [Compound 69, (((3′S,5S,7′R)-10′-((2,4-difluorobenzyl)carbamoyl)-3,3′-dimethyl-1′,11′-dioxo-1′,4′,5′,11′-tetrahydro-3′H,4H,7′H-spiro[isoxazole-5,6′-[2,7]methanopyrido[1,2-a][1,4]diazonin]-12′-yl)oxy)methyl ((S)-2-methyl-3-(phosphonooxy)propyl) carbonate] | 0.0029 | 17.3 | 4600 (≈ 6.46 mM)
CC1=NO[C@@]2(CC[C@H](C)N3C[C@H]2n2cc(C(=O)NCc4ccc(F)cc4F)c(=O)c(OCOC(=O)O[C@H](C)[C@H](C)OP(=O)(O)O)c2C3=O)C1 [Compound 58, (((3′S,5S,7′R)-10′-((2,4-difluorobenzyl)carbamoyl)-3,3′-dimethyl-1′,11′-dioxo-1′,4′,5′,11′-tetrahydro-3′H,4H,7′H-spiro[isoxazole-5,6′-[2,7]methanopyrido[1,2-a][1,4]diazonin]-12′-yl)oxy)methyl ((2R,3S)-3-(phosphonooxy)butan-2-yl) carbonate] | 0.00211 | 24.2 | 4860 (≈ 6.82 mM)
CC1=NO[C@@]2(CC[C@H](C)N3C[C@H]2n2cc(C(=O)NCc4ccc(F)cc4F)c(=O)c(OC(=O)OC[C@H](C)OP(=O)(O)O)c2C3=O)C1 [Compound 39, (3′S,5S,7′R)-10′-((2,4-difluorobenzyl)carbamoyl)-3,3′-dimethyl-1′,11′-dioxo-1′,4′,5′,11′-tetrahydro-3′H,4H,7′H-spiro[isoxazole-5,6′-[2,7]methanopyrido[1,2-a][1,4]diazonin]-12′-yl ((S)-2-(phosphonooxy)propyl) carbonate] | 0.0016 | 16.1 | 2660 (≈ 3.97 mM)
CC1=NO[C@@]2(CC[C@H](C)N3C[C@H]2n2cc(C(=O)NCc4ccc(F)cc4F)c(=O)c(OCOC(=O)CC(C)(C)CN(CC(=O)O)C(=O)OCOP(=O)(O)O)c2C3=O)C1 [Compound 42, N-(4-((((3′S,5S,7′R)-10′-((2,4-difluorobenzyl)carbamoyl)-3,3′-dimethyl-1′,11′-dioxo-1′,4′,5′,11′-tetrahydro-3′H,4H,7′H-spiro[isoxazole-5,6′-[2,7]methanopyrido[1,2-a][1,4]diazonin]-12′-yl)oxy)methoxy)-2,2-dimethyl-4-oxobutyl)-N-(((phosphonooxy)methoxy)carbonyl)glycine] | 0.00106 | 10.3 | 5080 (≈ 6.04 mM)
